Source: patent US5948793A, “3-pyridyloxymethyl heterocyclic ether compounds useful in controlling neurotransmitter release” (Abbott Laboratories, priority 1995, dated 1999)
Where a name gives a salt, the structure may show the parent alone.

Target: neuronal nicotinic cholinergic channel receptors
Assay: [3H]-cytisine displacement binding to neuronal nicotinic cholinergic channel receptors
Type: rat (crude synaptic membranes from whole rat brain)
Conditions: Table 2; [3H]-cytisine 1.25 nM, 60 min at 4° C.; dihydrochloride; read-out: Receptor Binding Ki
Method: B. Protocol For Determination of Nicotinic Cholinergic Channel Receptor Binding Potencies of Ligands
Binding of [^3 H]-cytisine ([^3 H]-CYT) to nicotinic receptors was accomplished using crude synaptic membrane preparations from whole rat brain (Pabreza et al., Molecular Pharmaol., 1990, 39:9). Washed membranes were stored at -80° C. prior to use. Frozen aliquots were slowly thawed and resuspended in 20 volumes of buffer (containing: 120 mM NaCl, 5 mM KCl, 2 mM MgCl2, 2 mM CaCl2 and 50 mM Tris-Cl, pH 7.4 @4° C.). After centrifuging at 20,000×g for 15 minutes, the pellets were resuspended in 30 volumes of buffer. Homogenate (containing […]) was added to triplicate tubes containing concentrations of test compound and [^3 H]-CYT (1.25 nM) in a final volume of 500 μL. Samples were incubated for 60 minutes at 4° C., then rapidly filtered through Whatman GF/B filters presoaked in 0.5% polyethylimine using 3×4 mL of ice-cold buffer. The filters are counted in 4 mL of Ecolume® (ICN). […] Alternately, data were expressed as a percentage of the total specific binding.

In the case of Cc1ncccc1OC[C@H]1CCN1 [Example 81, 2-methyl-3-(2-(R)-azetidinylmethoxy)pyridine dihydrochloride], the Ki is reported as 9.3 nM.

Same assay, conditions: Table 2; [3H]-cytisine 1.25 nM, 60 min at 4° C.; read-out: Receptor Binding Ki

Going from c1cncc(OC[C@H]2CCN2)c1 [Example 62, 3-(2-(R)-azetidinylmethoxy)pyridine dihydrochloride] to O[C@H]1CN[C@H](COc2cccnc2)C1 [Example 72, 3-((trans-4-hydroxy-2-(S)-pyrrolidinyl)methoxy)pyridine dihydrochloride], the Ki rises from 0.5 nM to 110 nM (220-fold). The first binds more tightly here.

Going from CN1C[C@H](CO)C[C@H]1COc1cccnc1 [Example 83, 3-((trans-4-hydroxymethyl-1-methyl-2-(S)-pyrrolidinyl)methoxy)pyridine dihydrochloride] to CN1C[C@@H](CO)C[C@H]1COc1cccnc1 [Example 48, 3-((cis-4-hydroxymethyl-1-methyl-2-(S)-pyrrolidinyl)methoxy)pyridine dihydrochloride], the Ki falls from 73.1 nM to 30 nM (2.4-fold). The second binds more tightly here.

Compared with CN1C[C@@H](F)C[C@H]1COc1cccnc1 [Example 78, 3-((cis-4-fluoro-1-methyl-2-(S)-pyrrolidinyl)methoxy)pyridine dihydrochloride], CN1C[C@@H](CF)C[C@H]1COc1cccnc1 [Example 92, 3-((cis-4-fluoromethyl-1-methyl-2-(S)-pyrrolidinyl)methoxy)pyridine dihydrochloride] is 24-fold higher in Ki: 5.77 nM for the first, 141 nM for the second.

First: CN1CCC[C@H]1COc1cncnc1 [Example 84, 5-(1-methyl-2-(S)-pyrrolidinylmethoxy)pyrimidine dihydrochloride]
Second: CN1CCC[C@H]1COc1cncc(N)c1 [Example 94, 5-Amino-3-(1-methyl-2(S)-pyrrolidinylmethoxy)pyridine hydrochloride]
The Ki of the first is 4.8-fold higher: 2.41 nM for the first, 0.5 nM for the second.

First: CN1CCC[C@H]1COc1ccc(Cl)nc1 [Example 55, 6-chloro-3-((1-methyl-2-(S)-pyrrolidinyl)methoxy)pyridine dihydrochloride]
Second: CN1CCC[C@@H]1COc1ccc(Cl)nc1 [Example 51, 3-((1-methyl-2-(R)-pyrrolidinyl)methoxy-6-chloropyridinedihydrochloride]
The Ki of the first is 7.1-fold lower: 0.63 nM for the first, 4.5 nM for the second. The first binds more tightly here.

C=CCN1CCC[C@H]1COc1cccnc1 [Example 82, 3-((1-allyl-2-(S)-pyrrolidinyl)methoxy)pyridine dihydrochloride] and C[C@@H]1CC[C@@H](COc2cccnc2)N1C [Example 89, 3-((trans-1,5-dimethyl-2-(S)-pyrrolidinyl)methoxy)pyridine hydrochloride] are within 1.5-fold of each other in Ki: 72.4 nM for the first, 91.2 nM for the second.

First: Clc1cc(OC[C@@H]2CCN2)cnc1Cl [Example 109, 5,6-Dichloro-3-(2-(S)-azetidinylmethoxy)pyridine hydrochloride]
Second: CN1CC[C@H]1COc1cnc(Cl)c(Cl)c1 [Example 110, 5,6-Dichloro-3-(1-methyl-2-(S)-azetidinylmethoxy)pyridine hydrochloride]
The Ki of the first is 31-fold lower: 0.024 nM for the first, 0.75 nM for the second.

First: CO[C@H]1CN[C@H](COc2cccnc2)C1 [Example 74, 3-((trans-4-methoxy-2-(S)-pyrrolidinyl)methoxy)pyridine dihydrochloride]
Second: CO[C@@H]1C[C@@H](COc2cccnc2)N(C)C1 [Example 47, 34 (trans-4-methoxy-1-methyl-2-(S)-pyrrolidinyl)methoxy)pyridine dihydrochloride]
The Ki of the first is 2.6-fold higher: 59 nM for the first, 23 nM for the second.

First: Clc1ccc(OC[C@@H]2CCCN2)cn1 [Example 45, 3-(2-(S)-pyrrolidinylmethoxy)-6-chloropyridine dihydrochloride]
Second: Clc1ccc(OC[C@H]2CCCN2)cn1 [Example 58, 3-(2-(R)-pyrrolidinylmethoxy)-6-chloropridine hydrochloride]
The Ki of the first is 71-fold lower: 0.075 nM for the first, 5.3 nM for the second. The first binds more tightly here.

Compared with Cc1ccncc1OC[C@@H]1CCN1 [Example 64, 4methyl-3-(2-(S)-azetidinylmethoxy)pyridine dihydrochloride], Clc1ccc(OC[C@@H]2CCN2)nn1 [Example 85, 3-(2-(S)-azetidinylmethoxy)-6-chloropyridazine hydrochloride] is 14-fold lower in Ki: 224 nM for the first, 16 nM for the second.

Compared with c1ccc2ncc(OC[C@H]3CCCN3)cc2c1 [Example 76, 3-(2-(R)-pyrrolidinylmethoxy)quinoline dihydrochloride], FC(F)(F)c1cncc(OC[C@@H]2CCN2)c1 [Example 70, 3-(2-(S)-azetidinylmethoxy)-5-trifluoromethylpyridine dihydrochloride] is 21-fold lower in Ki: 12.8 nM for the first, 0.6 nM for the second. The second binds more tightly here.

Going from CCC[C@H]1CCN(C)[C@H]1COc1cccnc1 (relative stereo) [Example 60, 3-((cis-1-methyl-3-propyl-2-pyrrolidinyl)methoxy)pyridine dihydrochloride] to CN1C[C@H](CC#N)C[C@H]1COc1cccnc1 [Example 50, 3-((trans-4-cyanomethyl-1-methyl-2-(S)-pyrrolidinyl)methoxy)pyridine dihydrochloride], the Ki falls from 51 nM to 5.6 nM (9.1-fold). The second binds more tightly here.

Going from CN1CC[C@H]1COc1cncc(Br)c1 [Example 68, 3-((1-methyl-2-(S)-azetidinyl)methoxy)-5-bromopyridine dihydrochloride] to CN1CCC[C@@H]1COc1cncc(Br)c1 [Example 56, 5-bromo-3-((1-methyl-2-(R)-pyrrolidinyl)methoxy)pyridine hydrochloride], the Ki rises from 4.5 nM to 9.2 nM (2-fold). The first binds more tightly here.

First: CCc1cncc(OC[C@@H]2CCCN2C)c1 [Example 75, 5-ethyl-3-(1-methyl-2-(S)-pyrrolidinylmethoxy)pyridine dihydrochloride]
Second: CN1CCC[C@H]1CCOc1ccc(Cl)nc1 [Example 105, 3-(2-(1-methyl-2-(S)-pyrrolidinyl)ethoxy-6-chloropyridinedihydrochloride]
The Ki of the first is 100-fold lower: 0.32 nM for the first, 33.1 nM for the second. The first binds more tightly here.

Same assay, conditions: read-out: Receptor Binding Ki

First: CN1CCC[C@H]1COc1ccc(Cl)nn1 [Example 12, 3-((1-methyl-2-(S)-pyrrolidinyl)methoxy-6-chloropyridazine fumarate]
Second: CN1CC[C@H]1COc1ccc(Cl)nn1 [Example 13, 6-chloro-3-((1-methyl-2(S)-azetidinyl)methoxy)pyridazine oxalate]
The Ki of the first is 2.2-fold lower: 29 nM for the first, 65 nM for the second.

Going from CN1CCC[C@H]1COc1cncc(Br)c1 [Example 28, 5-bromo-3-((1-methyl-2-(S)-pyrrolidinyl)methoxy)pyridine dihydrochloride] to Cc1ccc(OC[C@H]2CCCN2C)cn1 [Example 36, 6-methyl-3-((1-methyl-2-(R)-pyrrolidinyl)methoxy)pyridine dihydrochloride], the Ki rises from 0.23 nM to 26 nM (110-fold). The first binds more tightly here.

First: Cc1ncccc1OC[C@@H]1CCN1 [Example 29, 2-methyl-3-(2-(S)-azetidinylmethoxy)pyridine dihydrochloride]
Second: Cc1ccncc1OC[C@@H]1CCCN1 [Example 27, 4-methyl-3-(2-(S)-pyrrolidinylmethoxy)pyridine dihydrochloride]
The Ki of the first is 4.5-fold lower: 1.3 nM for the first, 5.8 nM for the second.

Going from C[C@@H]1C[C@@H](COc2cccnc2)N(C)C1 [Example 24, 3-((trans-1,4-dimethyl-2(S)-pyrrolidinyl)methoxy)pyridine dihydrochloride] to CN1CCCCC1COc1cccnc1 (stereo not drawn) [Example 26, 3-((1-methyl-2-piperidinyl)methoxy)pyridine oxalate salt], the Ki rises from 4.2 nM to 76 nM (18-fold).

Going from c1cncc(OC[C@H]2CCCN2)c1 [Example 2, 3-(2-(R)-pyrrolidinylmethoxy)pyridine dihydrochloride] to CN1CCC[C@H]1COc1cncc2ccccc12 [Example 32, 4-(1-methyl-2-(S)-pyrrolidinylmethoxy)isoquinoline hydrochloride], the Ki rises from 0.17 nM to 110 nM (650-fold).
